{
  "source": "patent US20230165278A1",
  "about": "“NUTRITIONAL SUPPLEMENTS COMPRISING DIETARY METAL COMPLEXES IN A MATRIX OF CELLULOSIC MATERIALS” (North Carolina State University, priority 2020, published 2023)",
  "key": {"[1]": {"conditions": "cited from earlier work; for Solubility (in words): background statement"}, "[2]": {"experiment": "Swine trial (16 barrows, 14 days): zinc in ileal, cecal and fecal samples and zinc digestibility", "type": "in vivo", "conditions": "pigs", "from_the_text": "A representative animal trial used a group of 16 barrows (castrated male pigs) including of 8 pairs of littermates. […] The littermate pairs were divided in half and randomly assigned to either the control diet or the test diet containing a composition of the presently disclosed subject matter. Each diet was formulated using a basal diet primarily of corn and soybean meal containing 50 ppm Zn from an added vitamin premix. The control diet contained an additional 50 ppm Zn from Basic Zinc Chloride (Zn5Cl2(OH)8.H2O) and the test diet contained an additional 50 ppm Zn from a composition of the presently disclosed subject matter for a total of 100 ppm Zn for each diet to meet the National Research Council recommendation for zinc supplementation of pigs of this size. The composition of the presently disclosed subject matter was prepared as described herein above.\nPigs were fed twice daily at 0800 and 1700 for the entirety of the trial. Daily feed intake for maintenance was determined for each pig at 4% of initial body weight at the beginning of the trial. Each pig was housed in a separate metabolism crate allowing for the quantitative collection of feces and urine. The trial lasted for a total of 14 days; the first 10 days allowed for the pigs to adjust to their new environments and diets. Days 11-13 for were used for twice-daily feces and urine collection. On day 14 all pigs were weighed and humanely euthanized prior to dissections to obtain ileal and cecal content samples. Feces samples and urine samples were pooled daily and stored at −20 C until ready for analysis. Fecal, ileal, and cecal samples were dried at 64 C in a drying oven until no change in mass was observed which took between 48-96 hours for most samples. After being dried completely, samples were sent to Missouri Field Laboratories for analysis of Zn, Titanium dioxide which was used as a feed marker, and proximate nutrient analysis. Pigs gained an average of 7.34 kilograms per pig during the 14 day trial.\nThe control diet, containing all supplemental zinc from basic zinc chloride, contained 134 ppm zinc. […] This may be indicative of the composition of the presently disclosed subject matter having higher levels of zinc than used in formulation of the diets.\nUsing the concentration of zinc found in the feed and ileal, cecal and fecal samples, zinc digestibility by the following equation: 100−[100*(zinc in feed/zinc in feces)]. Since the amounts of zinc present in the diets were over the zinc requirement of pigs of this size and age, the extra zinc in the diets employing a composition of the presently disclosed subject matter (referred to as “Experimental” in Table 2) may have affected the zinc digestibility results."}, "[3]": {"experiment": "Solubility in water", "type": "physicochemical", "conditions": "description of the patent's own materials"}, "[4]": {"conditions": "100-[100*(zinc in feed/zinc in sample)]"}},
  "data": [
    {"compound": "O=C([O-])[C@H](O)[C@@H](O)[C@H](O)[C@H](O)CO.O=C([O-])[C@H](O)[C@@H](O)[C@H](O)[C@H](O)CO.[Zn+2]", "note": "[zinc gluconate, Zn(O2C(CHOH)4CH2OH)2]", "values": [
      {"measurement": "Solubility (in words)", "setting": "[1]", "result": "highly soluble"}
    ]},
    {"compound": "[O]=[Zn]", "note": "[Zinc oxide]", "values": [
      {"measurement": "Solubility (in words)", "setting": "[1]", "result": "relatively insoluble except in acid"}
    ]},
    {"compound": "Zn5Cl2(OH)8.H2O [Control]", "values": [
      {"measurement": "Percent more zinc in ileal contents than in cecal contents", "setting": "[2]", "result": 2.2, "unit": "%"},
      {"measurement": "Concentration of Zinc found in contents of the cecum", "setting": "[2]; dried cecal contents, day 14, diet zinc found 134 ppm (control) / 152 ppm (experimental)", "result": 399, "unit": "ppm"},
      {"measurement": "Concentration of Zinc found in feces", "setting": "[2]; dried feces collected days 11-13, diet zinc found 134 ppm (control) / 152 ppm (experimental)", "result": 678, "unit": "ppm"},
      {"measurement": "Concentration of Zinc found in contents of the ileum", "setting": "[2]; dried ileal contents, day 14, diet zinc found 134 ppm (control) / 152 ppm (experimental)", "result": 408, "unit": "ppm"},
      {"measurement": "Percent Digestibility of Zinc in Feed, Fecal", "setting": "[2]; 100-[100*(zinc in feed/zinc in feces)]", "result": 80.2, "unit": "%"},
      {"measurement": "Percent Digestibility of Zinc in Feed, Cecal", "setting": "[2]; [4]", "result": 66.1, "unit": "%"},
      {"measurement": "Percent Digestibility of Zinc in Feed, Ileal", "setting": "[2]; [4]", "result": 62.6, "unit": "%"},
      {"measurement": "Share of total zinc excreted in feces", "setting": "[2]; fecal zinc vs total of ileal, cecal and fecal zinc", "result": 45.7, "unit": "%"},
      {"measurement": "Share of total zinc retained in ilium+cecum", "setting": "[2]; ileal+cecal zinc vs total of ileal, cecal and fecal zinc", "result": 54.3, "unit": "%"},
      {"measurement": "Solubility in water / aqueous solution (in words)", "setting": "[3]", "result": "highly insoluble in water"}
    ]},
    {"compound": "[Cl-].[Cl-].[Zn+2]", "note": "[ZnCl2]", "values": [
      {"measurement": "Solubility (amount that dissolves in 1 L of water)", "setting": "[1]; in 1 L of water", "result": 4, "unit": "kg"}
    ]}
  ]
}
